As a reminder, the IC50 is the concentration that gives 50% inhibition. Read a high IC50 as weaker potency in that assay.

Where “and” joins values, the source holds several entries; their conditions need not be identical. Equal values may be shown once.

Sequence of IRAK4 (Q9NWZ3 whole entry, species assumed): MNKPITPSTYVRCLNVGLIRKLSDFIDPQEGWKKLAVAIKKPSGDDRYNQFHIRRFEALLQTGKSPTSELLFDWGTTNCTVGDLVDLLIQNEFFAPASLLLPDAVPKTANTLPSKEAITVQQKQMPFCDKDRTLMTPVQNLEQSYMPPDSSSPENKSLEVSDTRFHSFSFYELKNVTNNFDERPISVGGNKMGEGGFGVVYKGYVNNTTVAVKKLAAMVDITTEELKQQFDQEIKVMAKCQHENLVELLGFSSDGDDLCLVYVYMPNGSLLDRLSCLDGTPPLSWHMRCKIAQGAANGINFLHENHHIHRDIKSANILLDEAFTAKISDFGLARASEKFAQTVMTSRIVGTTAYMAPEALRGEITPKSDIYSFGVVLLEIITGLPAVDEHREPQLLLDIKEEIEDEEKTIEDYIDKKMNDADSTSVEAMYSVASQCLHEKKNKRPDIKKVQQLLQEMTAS

The experiment has as its target IRAK4 (Homo sapiens (Human), UniProt Q9NWZ3). Put plainly: IRAK-4 AlphaScreen biochemical kinase assay. As to conditions: 1 nM IRAK4, 1 mM ATP, 3.5 h at RT. The method, boiled down:
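AlphaScreen read-out: streptavidin beads bind the biotinylated peptide and protein A beads bind the anti-phosphothreonine antibody, so energy transfer reports phosphorylation of the peptide. The kinase is human IRAK-4.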
(In Alpha technology, singlet oxygen from a donor bead excites a nearby acceptor bead.)
Consider `CNC(C)c1cccc(-c2ccc3cnn(-c4cccc(C)n4)c3c2)n1` (centres unmarked) [Example 116, N-methyl-1-(6-(1-(6-methylpyridin-2-yl)-1H-indazol-6-yl)pyridin-2-yl)ethanamine], for which the half-inhibitory concentration (IC50) fell in the range of 0.1 to 1 µM. The compound `CC(N)c1cccc(-c2ccc3cnn(-c4cccc(C5CC5)n4)c3c2)n1` (centres unmarked) [Example 119, 1-(6-(1-(6-cyclopropylpyridin-2-yl)-1H-indazol-6-yl)pyridin-2-yl)ethanamine] came in with an IC50 of less than 0.1 µM.

`CCc1cccc(-n2ncc3ccc(-c4cccc(C(C)N)n4)cc32)n1` (centres unmarked) [Example 120, 1-(6-(1-(6-ethylpyridin-2-yl)-1H-indazol-6-yl)pyridin-2-yl)ethanamine]: the IC50 is less than 0.1 µM.

`CC(C)c1cccc(-n2ncc3ccc(-c4cccc(C(C)N)n4)cc32)n1` (centres unmarked) [Example 121, 1-(6-(1-(6-isopropylpyridin-2-yl)-1H-indazol-6-yl)pyridin-2-yl)ethanamine] showed a concentration for half-maximal inhibition (IC50) of less than 0.1 µM.

`CC(N)c1cccc(-c2ccc3cnn(-c4ccccn4)c3c2)n1` (centres unmarked) [Example 122, 1-(6-(1-(pyridin-2-yl)-1H-indazol-6-yl)pyridin-2-yl)ethanamine]: the IC50 is 0.1 to 1 µM. As for `CC(N)c1cccc(-c2ccc3cnn(-c4cccc(CO)n4)c3c2)n1` (centres unmarked) [Example 123, (6-(6-(6-(1-aminoethyl)pyridin-2-yl)-1H-indazol-1-yl)pyridin-2-yl)methanol], the IC50 is less than 0.1 µM. Regarding `Cc1cc(-c2ccc3cnn(-c4cccc(C)n4)c3c2)nc(C(C)N)c1` (centres unmarked) [Example 124, 1-(4-methyl-6-(1-(6-methylpyridin-2-yl)-1H-indazol-6-yl)pyridin-2-yl)ethanamine], the IC50 is less than 0.1 µM.

With `Cc1cccc(-n2ncc3ccc(-c4cc(C(F)(F)F)cc(C(C)N)n4)cc32)n1` (centres unmarked) [Example 125, 1-(6-(1-(6-methylpyridin-2-yl)-1H-indazol-6-yl)-4-(trifluoromethyl)pyridin-2-yl)ethanamine], the IC50 fell in the range of 0.1 to 1 µM. Take `CC(N)c1cccc(-c2ccc3cnn(-c4cccc(C(N)=O)n4)c3c2)n1` (centres unmarked) [Example 126, 6-(6-(6-(1-aminoethyl)pyridin-2-yl)-1H-indazol-1-yl)picolinamide]: the IC50 was less than 0.1 µM. Compound `CCC(N)c1cccc(-c2ccc3cnn(-c4cccc(C(F)(F)F)n4)c3c2)n1` (centres unmarked) [Example 127, 1-(6-(1-(6-(trifluoromethyl)pyridin-2-yl)-1H-indazol-6-yl)pyridin-2-yl)propan-1-amine] returned an IC50 of less than 0.1 µM.

`NC(c1cccc(-c2ccc3cnn(-c4cccc(C(F)(F)F)n4)c3c2)n1)C1CC1` (centres unmarked) [Example 128, cyclopropyl(6-(1-(6-(trifluoromethyl)pyridin-2-yl)-1H-indazol-6-yl)pyridin-2-yl)methanamine]: the IC50 is less than 0.1 µM. With `CC(C)(N)c1cccc(-c2ccc3cnn(-c4cccc(C(F)(F)F)n4)c3c2)n1` [Example 129, 2-(6-(1-(6-(trifluoromethyl)pyridin-2-yl)-1H-indazol-6-yl)pyridin-2-yl)propan-2-amine] the figure was less than 0.1 µM. `Cc1cccc(-n2ncc3ccc(-c4cccc(C(C)O)n4)cc32)n1` (centres unmarked) [Example 130, 1-(6-(1-(6-methylpyridin-2-yl)-1H-indazol-6-yl)pyridin-2-yl)ethanol]: the IC50 lay within 0.1 to 1 µM. With `Cc1cccc(-n2ncc3ccc(-c4cccc(C(N)C5CC5)n4)cc32)n1` (centres unmarked) [Example 131, cyclopropyl(6-(1-(6-methylpyridin-2-yl)-1H-indazol-6-yl)pyridin-2-yl)methanamine], the IC50 was less than 0.1 µM. `CCCC(N)c1cccc(-c2ccc3cnn(-c4cccc(C)n4)c3c2)n1` (centres unmarked) [Example 132, 1-(6-(1-(6-methylpyridin-2-yl)-1H-indazol-6-yl)pyridin-2-yl)butan-1-amine]: the half-maximal inhibitory concentration (IC50) was less than 0.1 µM. On to `Cc1csc(-n2ncc3ccc(-c4cccc(C(C)N)n4)cc32)n1` (centres unmarked) [Example 134, 1-(6-(1-(4-methylthiazol-2-yl)-1H-indazol-6-yl)pyridin-2-yl)ethanamine], for which the concentration for half-maximal inhibition (IC50) lay in the range of 0.1 to 1 µM.

Consider `Cc1cnc(-n2ncc3ccc(-c4cccc(C(C)N)n4)cc32)s1` (centres unmarked) [Example 135, 1-(6-(1-(5-methylthiazol-2-yl)-1H-indazol-6-yl)pyridin-2-yl)ethanamine], for which the IC50 was 0.1 to 1 µM. In the case of `Cc1nc(-n2ncc3ccc(-c4cccc(C(C)N)n4)cc32)cs1` (centres unmarked) [Example 136, 1-(6-(1-(2-methylthiazol-4-yl)-1H-indazol-6-yl)pyridin-2-yl)ethanamine] it was 0.1 to 1 µM; in that of `CC(N)c1cccc(-c2ccc3cnn(-c4ccn(C)n4)c3c2)n1` (centres unmarked) [Example 137, 1-(6-(1-(1-methyl-1H-pyrazol-3-yl)-1H-indazol-6-yl)pyridin-2-yl)ethanamine], 0.1 to 1 µM.

On to `CC(N)c1cccc(-c2ccc3cnn(-c4cn(C)cn4)c3c2)n1` (centres unmarked) [Example 138, 1-(6-(1-(1-methyl-1H-imidazol-4-yl)-1H-indazol-6-yl)pyridin-2-yl)ethanamine], for which the IC50 is 0.1 to 1 µM and 1 to 10 µM. With `Cc1cccc(-n2ncc3ccc(-c4nc(CN)cs4)cc32)n1` [Example 139, (2-(1-(6-methylpyridin-2-yl)-1H-indazol-6-yl)thiazol-4-yl)methanamine], the 50% inhibitory concentration (IC50) was 0.1 to 1 µM. `Cc1cccc(-n2ncc3ccc(-c4ncc(CN)s4)cc32)n1` [Example 140, (2-(1-(6-methylpyridin-2-yl)-1H-indazol-6-yl)thiazol-5-yl)methanamine] displayed a half-inhibitory concentration (IC50) of 0.1 to 1 µM. In the case of `Cc1cccc(-n2ncc3ccc(-c4cccc([C@@H](C)N)n4)cc32)n1` [Example 141, (R)-1-(6-(1-(6-methylpyridin-2-yl)-1H-indazol-6-yl)pyridin-2-yl)ethanamine], the IC50 was less than 0.1 µM. `Cc1cccc(-n2ncc3ccc(-c4cccc([C@H](C)N)n4)cc32)n1` [Example 142, (S)-1-(6-(1-(6-methylpyridin-2-yl)-1H-indazol-6-yl)pyridin-2-yl)ethanamine] gave an IC50 of less than 0.1 µM. Compound `C[C@H](N)c1cccc(-c2ccc3cnn(-c4cccc(CO)n4)c3c2)n1` [Example 143, (S)-(6-(6-(6-(1-aminoethyl)pyridin-2-yl)-1H-indazol-1-yl)pyridin-2-yl)methanol] displayed an IC50 of less than 0.1 µM. `C[C@@H](N)c1cccc(-c2ccc3cnn(-c4cccc(CO)n4)c3c2)n1` [Example 144, (R)-(6-(6-(6-(1-aminoethyl)pyridin-2-yl)-1H-indazol-1-yl)pyridin-2-yl)methanol]: the IC50 is less than 0.1 µM. Consider `CCC[C@H](N)c1cccc(-c2ccc3cnn(-c4cccc(CO)n4)c3c2)n1` [Example 145, (S)-(6-(6-(6-(1-aminobutyl)pyridin-2-yl)-1H-indazol-1-yl)pyridin-2-yl)methanol], for which the IC50 is less than 0.1 µM. Take `CCC[C@@H](N)c1cccc(-c2ccc3cnn(-c4cccc(CO)n4)c3c2)n1` [Example 146, (R)-(6-(6-(6-(1-aminobutyl)pyridin-2-yl)-1H-indazol-1-yl)pyridin-2-yl)methanol]: the half-inhibitory concentration (IC50) was less than 0.1 µM.

Compound `Cc1cccc(-n2ncc3ccc(-c4cc(C(N)=O)ccn4)cc32)n1` [Example 201, 2-(1-(6-methylpyridin-2-yl)-1H-indazol-6-yl)isonicotinamide] showed an IC50 of more than 10 µM. In turn, `Cc1cccc(-n2ncc3ccc(-c4cncc(N(C)C)c4)cc32)n1` [Example 202, N,N-dimethyl-5-(1-(6-methylpyridin-2-yl)-1H-indazol-6-yl)pyridin-3-amine] displayed a 50% inhibitory concentration (IC50) of 0.1 to 1 µM. The compound `Cc1cccc(-n2ncc3ccc(-c4cncc(N5CCCC5)c4)cc32)n1` [Example 203, 1-(6-methylpyridin-2-yl)-6-(5-(pyrrolidin-1-yl)pyridin-3-yl)-1H-indazole] returned a concentration for half-maximal inhibition (IC50) of 1 to 10 µM. In the case of `Cc1cccc(-n2ncc3ccc(-c4cc(N)cnc4C)cc32)n1` [Example 204, 6-methyl-5-(1-(6-methylpyridin-2-yl)-1H-indazol-6-yl)pyridin-3-amine] it was 0.1 to 1 µM; in that of `Nc1cncc(-c2ccc3cnn(-c4cccc(C5CCCC5)n4)c3c2)c1` [Example 205, 5-(1-(6-cyclopentylpyridin-2-yl)-1H-indazol-6-yl)pyridin-3-amine], more than 10 µM; in that of `Cc1cccc(-n2ncc3ccc(-c4cccc5c4CCNC5=O)cc32)n1` [Example 206, 5-(1-(6-methylpyridin-2-yl)-1H-indazol-6-yl)-3,4-dihydroisoquinolin-1(2H)-one], more than 10 µM. With `CC(=O)c1cccc(-c2cc(F)c3cnn(-c4cccc(C(F)(F)F)n4)c3c2)n1` [Example 207, 1-(6-(4-fluoro-1-(6-(trifluoromethyl)pyridin-2-yl)-1H-indazol-6-yl)pyridin-2-yl)ethanone] the figure was 1 to 10 µM; with `O=C1CCc2ccc(-c3ccc4cnn(-c5cccc(C(F)(F)F)n5)c4c3)nc21` [Example 210, 2-(1-(6-(trifluoromethyl)pyridin-2-yl)-1H-indazol-6-yl)-5H-cyclopenta[b]pyridin-7(6H)-one], more than 10 µM; with `N#Cc1cccc(-c2ccc3cnn(-c4cccc(C(F)(F)F)n4)c3c2)n1` [Example 211, 6-(1-(6-(trifluoromethyl)pyridin-2-yl)-1H-indazol-6-yl)picolinonitrile], 1 to 10 µM. As to `Nc1cc(-c2ccc3cnn(-c4cccc(C(F)(F)F)n4)c3c2)cc(C(=O)O)n1` [Example 213, 6-amino-4-(1-(6-(trifluoromethyl)pyridin-2-yl)-1H-indazol-6-yl)picolinic acid], the IC50 was in the range of 1 to 10 µM. Take `Cc1cccc(-n2ncc3c(C#N)cc(-c4cccc(C(C)N)n4)cc32)n1` (centres unmarked) [Example 214, 6-(6-(1-aminoethyl)pyridin-2-yl)-1-(6-methylpyridin-2-yl)-1H-indazole-4-carbonitrile]: the IC50 is less than 0.1 µM.

The compound `Cc1cccc(-n2cc3c(CN)cc(-c4cccc(C(C)N)n4)cc3n2)n1` (centres unmarked) [Example 215, 1-(6-(4-(aminomethyl)-2-(6-methylpyridin-2-yl)-2H-indazol-6-yl)pyridin-2-yl)ethanamine] displayed a 50% inhibitory concentration (IC50) of 1 to 10 µM. `CC(c1cccc(-c2ccc3cnn(-c4cccc(C(F)(F)F)n4)c3c2)n1)N(C)C` (centres unmarked) [Example 216, N,N-dimethyl-1-(6-(1-(6-(trifluoromethyl)pyridin-2-yl)-1H-indazol-6-yl)pyridin-2-yl)ethanamine]: the IC50 is less than 0.1 µM.

The values are drawn from patent US10246456B2, “IRAK4 inhibiting agents” (BIOGEN MA INC., priority 2014, dated 2019).
